Test results reported in the supplement of paper PMC10307832.

Columns and labels:
Experiment in all cases: relative viability (nuclei count vs DMSO), 5 days (fraction); higher = more cells survive
Bortezomib + Luminespib = compound: CC(C)C[C@H](NC(=O)[C@H](Cc1ccccc1)NC(=O)c1cnccn1)B(O)O [Bortezomib] + CCNC(=O)c1noc(-c2cc(C(C)C)c(O)cc2O)c1-c1ccc(CN2CCOCC2)cc1 [Luminespib] (partner 0.01 µM)
Method in brief: (§1)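 Each reported value is a median over duplicate plates. It expresses relative viability: treated-well nuclei count divided by vehicle-well nuclei count. Lung cancer cell lines in 1536-well plates were dosed by pin tool a day after seeding, alone with one drug or with a fixed anchor-drug dose plus five library-drug doses (not always all listed) in √10 steps, and nuclei were counted after 5 days.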

Bortezomib + Dasatinib = compound: CC(C)C[C@H](NC(=O)[C@H](Cc1ccccc1)NC(=O)c1cnccn1)B(O)O [Bortezomib] + Cc1nc(Nc2ncc(C(=O)Nc3c(C)cccc3Cl)s2)cc(N2CCN(CCO)CC2)n1 [Dasatinib] (partner 0.075 µM)
Method in brief: as §1

[1] = compound: CC1=CC(=NN1)NC2=CC(=NC(=N2)/C=C/C3=CC=CC=C3)N4CCN(CC4)C + Nc1nc2[nH]cc(CCc3ccc(C(=O)N[C@@H](CCC(=O)O)C(=O)O)cc3)c2c(=O)[nH]1 [Pemetrexed] (partner 0.2 µM)
Method in brief: as §1

[2] = compound: CC1=CC(=NN1)NC2=CC(=NC(=N2)/C=C/C3=CC=CC=C3)N4CCN(CC4)C + O=C(c1cc(Cc2n[nH]c(=O)c3ccccc23)ccc1F)N1CCN(C(=O)C2CC2)CC1 [Olaparib] (partner 8 µM)
Method in brief: as §1

Cell Line	relative viability (Bortezomib + Luminespib; first compound 0.0002 µM)	relative viability (Bortezomib + Luminespib; first compound 0.000632 µM)	relative viability (Bortezomib + Luminespib; first compound 0.002 µM)	relative viability (Bortezomib + Luminespib; first compound 0.006325 µM)	relative viability (Bortezomib + Luminespib; first compound 0.02 µM)	relative viability (Bortezomib + Dasatinib; first compound 0.0002 µM)	relative viability (Bortezomib + Dasatinib; first compound 0.000632 µM)	relative viability (Bortezomib + Dasatinib; first compound 0.002 µM)	relative viability (Bortezomib + Dasatinib; first compound 0.006325 µM)	relative viability (Bortezomib + Dasatinib; first compound 0.02 µM)	relative viability ([1]; first compound 0.08 µM)	relative viability ([1]; first compound 0.253 µM)	relative viability ([1]; first compound 0.8 µM)	relative viability ([1]; first compound 2.53 µM)	relative viability ([1]; first compound 8 µM)	relative viability ([2]; first compound 0.08 µM)	relative viability ([2]; first compound 0.253 µM)	relative viability ([2]; first compound 0.8 µM)	relative viability ([2]; first compound 2.53 µM)	relative viability ([2]; first compound 8 µM)
COR-L 105	0.784	0.914	0.614	0.434	0.211	0.381	0.324	0.352	0.267	0.216	1.23	1.13	0.945	0.351	0.29	0.591	0.688	0.691	0.658	0.27
LU99A	0.227	0.178	0.231	0.24	0.184	0.521	0.381	0.655	0.433	0.174	0.187	0.2	0.199	0.202	0.173	0.275	0.244	0.266	0.182	0.103
H3255	0.765	0.856	1.02	0.386	0.271	0.332	0.271	0.299	0.37	0.28	0.526	0.589	0.573	0.555	0.391	0.553	0.568	0.599	0.575	0.326
NCI-H1734	0.181	0.186	0.178	0.129	0.101	0.469	0.45	0.516	0.112	0.109	0.409	0.384	0.409	0.238	0.199	0.562	0.645	0.554	0.408	0.118
NCI-H1915	0.724	0.732	0.721	0.0571	0.0533	0.234	0.329	0.315	0.128	0.0542	0.523	0.553	0.452	0.37	0.137	0.256	0.255	0.262	0.223	0.126
NCI-H2009	0.954	0.988	1.06	0.803	0.0826	0.291	0.254	0.244	0.0687	0.0717	1.09	1.03	0.982	0.909	0.313	0.657	0.746	0.691	0.811	0.324
NCI-H1651	0.868	0.906	1.07	0.154	0.114	0.387	0.442	0.153	0.105	0.0988	0.39	0.58	0.571	0.518	0.223	0.177	0.189	0.176	0.166	0.135
HOP-62	0.921	0.907	0.67	0.288	0.0887	0.581	0.645	0.713	0.228	0.068	0.364	0.328	0.288	0.294	0.182	0.366	0.521	0.436	0.395	0.194
CAL-12T	0.121	0.447	0.412	0.599	0.105	0.538	0.347	0.53	0.119	0.0844	1.09	1.25	1.16	0.56	0.159	0.714	0.741	0.714	0.238	0.237
LCLC-103H	0.902	0.955	0.495	0.175	0.152	0.461	0.486	0.435	0.161	0.123	0.476	0.465	0.458	0.516	0.359	0.775	0.846	0.716	0.668	0.481
NCI-H3122	0.103	0.0765	0.105	0.118	0.113	0.878	0.873	0.901	0.233	0.0847	0.2	0.203	0.206	0.186	0.147	0.568	0.722	0.654	0.62	0.474
NCI-H1395	0.864	0.761	0.445	0.334	0.263	0.428	0.41	0.427	0.352	0.306	0.875	0.814	0.714	0.357	0.233	0.472	0.462	0.445	0.355	0.278
PC-14	0.153	0.163	0.13	0.0991	0.109	0.294	0.236	0.168	0.028	0.0371	0.14	0.134	0.15	0.0655	0.0336	0.285	0.289	0.275	0.0326	0.0264
NCI-H2342	1.01	0.748	0.699	0.791	0.382	0.286	0.306	0.322	0.334	0.349	0.642	0.81	0.819	0.769	0.473	0.411	0.419	0.417	0.412	0.268
BEN	0.314	0.665	0.568	0.249	0.184	0.262	0.408	0.343	0.246	0.249	0.723	0.809	0.699	0.476	0.323	0.985	1.17	0.987	0.606	0.275
EPLC-272H	0.36	0.143	0.217	0.148	0.115	0.342	0.192	0.277	0.0803	0.0618	0.329	0.363	0.342	0.104	0.136	0.725	0.901	0.496	0.12	0.0643

Cell Line	relative viability (Bortezomib + Luminespib; first compound 0.0002 µM)	relative viability (Bortezomib + Luminespib; first compound 0.000632 µM)	relative viability (Bortezomib + Luminespib; first compound 0.002 µM)	relative viability (Bortezomib + Luminespib; first compound 0.006325 µM)	relative viability (Bortezomib + Luminespib; first compound 0.02 µM)	relative viability (Bortezomib + Dasatinib; first compound 0.0002 µM)	relative viability (Bortezomib + Dasatinib; first compound 0.000632 µM)	relative viability (Bortezomib + Dasatinib; first compound 0.002 µM)	relative viability (Bortezomib + Dasatinib; first compound 0.006325 µM)	relative viability (Bortezomib + Dasatinib; first compound 0.02 µM)	relative viability ([1]; first compound 0.08 µM)	relative viability ([1]; first compound 0.253 µM)	relative viability ([1]; first compound 0.8 µM)	relative viability ([1]; first compound 2.53 µM)	relative viability ([1]; first compound 8 µM)	relative viability ([2]; first compound 0.08 µM)	relative viability ([2]; first compound 0.253 µM)	relative viability ([2]; first compound 0.8 µM)	relative viability ([2]; first compound 2.53 µM)	relative viability ([2]; first compound 8 µM)
LK-2	0.182	0.186	0.238	0.182	0.172	0.287	0.304	0.203	0.114	0.138	0.199	0.288	0.306	0.217	0.0825	0.699	0.772	0.684	0.29	0.0845
ChaGo-K-1	0.577	0.554	0.683	0.356	0.169	0.535	0.539	0.558	0.207	0.13	0.259	0.264	0.27	0.227	0.17	0.371	0.42	0.38	0.234	0.148
UMC-11	0.871	0.978	0.972	0.597	0.167	0.389	0.491	0.439	0.278	0.171	0.74	0.705	0.481	0.148	0.122	0.361	0.39	0.395	0.0656	0.167
HCC-827	0.533	0.588	0.415	0.152	0.122	0.302	0.285	0.259	0.34	0.199	0.159	0.241	0.262	0.266	0.171	0.605	0.622	0.708	0.62	0.263
NCI-H1993	0.799	0.807	0.991	0.428	0.4	0.542	0.578	0.577	0.408	0.456	0.58	0.65	0.592	0.516	0.351	1.01	1.24	0.894	0.829	0.419
NCI-H647	0.198	0.294	0.136	0.0557	0.0467	0.203	0.156	0.188	0.0197	0.017	0.2	0.174	0.168	0.0748	0.0585	0.524	0.521	0.493	0.0425	0.0194
NCI-H522	0.983	0.97	0.959	0.745	0.367	0.875	0.79	0.965	0.4	0.393	0.992	0.848	0.957	0.894	0.622	0.64	0.647	0.61	0.472	0.319
NCI-H460	0.0335	0.0348	0.033	0.0295	0.0196	0.437	0.507	0.514	0.342	0.0305	0.0607	0.0584	0.0607	0.0513	0.0228	0.38	0.362	0.427	0.147	0.025
EMC-BAC-2	1.21	1.11	1.17	0.441	0.208	0.313	0.318	0.494	0.157	0.188	0.439	0.495	0.445	0.465	0.234	0.465	0.521	0.445	0.341	0.197
NCI-H23	0.224	0.208	0.208	0.18	0.169	0.913	0.976	0.76	0.224	0.108	0.508	0.768	0.542	0.215	0.118	0.303	0.325	0.224	0.134	0.108
A-427	0.889	0.926	0.589	0.33	0.125	0.611	0.746	0.716	0.408	0.104	1.06	1.1	0.97	0.51	0.202	0.815	0.774	0.913	0.468	0.158
NCI-H322M	0.736		0.729	0.386	0.322	0.26		0.253	0.229	0.286	0.615	0.622	0.616	0.308	0.273	0.662	0.762	0.742	0.486	0.281
COR-L23	0.639	0.669	0.61	0.0526	0.058	0.461	0.459	0.485	0.045	0.054	0.202	0.203	0.179	0.166	0.105	0.335	0.339	0.32	0.126	0.0705
SK-MES-1	0.801	0.763	0.72	0.166	0.156	0.375	0.351	0.35	0.124	0.125	0.908	0.995	0.89	0.213	0.162	0.667	0.776	0.566	0.126	0.134
NCI-H2085	0.482	0.36	0.4	0.178	0.235	0.31	0.253	0.207	0.209	0.241	0.994	0.982	0.952	0.325	0.258	0.783	0.792	0.755	0.429	0.28
NCI-H2087	0.163	0.145	0.164	0.0644	0.0565	0.684	0.819	0.458	0.0422	0.037	0.63	0.652	0.652	0.566	0.162	0.538	0.629	0.553	0.303	0.0973
